Test results taken from PMC11335192, “Unveiling the crucial role of betaine: modulation of GABA homeostasis via SLC6A1 transporter (GAT1)” (Cellular and Molecular Life Sciences: CMLS, 2024).

Tests used:
Type in all cases: cell-based
canine BGT-1 (cBGT-1) = biological target: T1, canine BGT-1 (cBGT-1) (Canis lupus, UniProt P27799); assay: TEVC transport currents in Xenopus oocytes
T1 construct: gene SLC6A12
T1 sequence (P27799 1-614): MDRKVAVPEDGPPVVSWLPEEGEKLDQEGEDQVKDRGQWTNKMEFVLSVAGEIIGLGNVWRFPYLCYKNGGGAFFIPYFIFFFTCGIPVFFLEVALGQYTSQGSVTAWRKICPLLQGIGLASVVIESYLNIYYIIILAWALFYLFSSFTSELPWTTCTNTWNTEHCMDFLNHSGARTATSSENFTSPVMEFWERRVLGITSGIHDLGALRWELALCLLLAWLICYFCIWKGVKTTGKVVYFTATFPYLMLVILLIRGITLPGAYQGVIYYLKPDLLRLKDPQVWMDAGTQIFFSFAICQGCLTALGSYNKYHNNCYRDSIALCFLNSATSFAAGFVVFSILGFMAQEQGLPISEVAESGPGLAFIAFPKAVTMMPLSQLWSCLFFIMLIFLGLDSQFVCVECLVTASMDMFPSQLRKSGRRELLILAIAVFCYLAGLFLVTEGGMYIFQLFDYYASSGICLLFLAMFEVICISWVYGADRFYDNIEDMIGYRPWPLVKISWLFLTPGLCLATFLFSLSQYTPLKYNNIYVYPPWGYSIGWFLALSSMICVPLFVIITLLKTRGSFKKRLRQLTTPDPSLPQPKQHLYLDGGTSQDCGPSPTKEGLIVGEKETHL

rat GAT1 (rGAT1) = biological target: T2, rat GAT1 (rGAT1) (Rattus norvegicus, UniProt P23978); assay: TEVC transport currents in Xenopus oocytes; LC-MS/MS uptake; [3H]-GABA efflux in HEK293-rGAT1 cells
T2 construct: gene Slc6a1

human GAT1 (hGAT1) = biological target: T3, human GAT1 (hGAT1) (Homo sapiens, UniProt P30531); assay: automated whole-cell patch clamp (Patchliner) on CHO cells overexpressing hGAT1
T3 construct: gene SLC6A1
T3 sequence (P30531 whole entry): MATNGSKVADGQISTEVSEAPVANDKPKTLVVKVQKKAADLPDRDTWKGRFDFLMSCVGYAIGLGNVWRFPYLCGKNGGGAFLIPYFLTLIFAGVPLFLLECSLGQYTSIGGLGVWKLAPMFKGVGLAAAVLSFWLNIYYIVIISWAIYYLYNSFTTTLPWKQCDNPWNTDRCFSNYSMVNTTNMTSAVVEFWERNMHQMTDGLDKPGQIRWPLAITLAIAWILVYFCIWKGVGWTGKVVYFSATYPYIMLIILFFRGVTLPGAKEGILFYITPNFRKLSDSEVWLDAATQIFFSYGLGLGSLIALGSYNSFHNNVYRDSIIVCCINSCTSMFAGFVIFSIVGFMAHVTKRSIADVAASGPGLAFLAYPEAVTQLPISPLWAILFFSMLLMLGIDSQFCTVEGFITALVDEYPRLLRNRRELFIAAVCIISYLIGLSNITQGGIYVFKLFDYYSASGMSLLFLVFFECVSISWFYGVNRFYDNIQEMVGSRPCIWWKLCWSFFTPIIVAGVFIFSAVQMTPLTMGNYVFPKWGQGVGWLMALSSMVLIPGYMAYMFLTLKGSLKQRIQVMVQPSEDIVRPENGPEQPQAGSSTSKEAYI

## C[N+](C)(C)CC(=O)O [Betaine]
Canine BGT-1 (cBGT-1)
  EC50: 1.69 mM
Rat GAT1 (rGAT1)
  EC50: 11.6 mM
Human GAT1 (hGAT1)
  EC50: ~27 mM
